One compound from patent US20260198495A1, “BINARY INSECTICIDE COMPOSITION AND USE THEREOF” (SHENYANG SINOCHEM AGROCHEMICALS R & D CO., LTD., priority 2022, published 2026) can be followed below.

Assay type in all cases: in vivo
For test [1], the system named is Cnaphalocrocis medinalis. In words: Field efficacy trial of I-72 and Bacillus thuringiensis on rice, Example 86, Table 86. Particulars: 20 days after application. The protocol: This trial was arranged in the suburban area of Jurong City, Jiangsu Province. The conventional spraying method was adopted in the trial. The investigation method was to take samples at 5 points, and a total of 25 clusters of rice were investigated. The investigation was performed 20 days after the pesticide application. By comparing with the leaf rolling rate in the control plot, the relative control efficacy was calculated. The amount of water used per mu was 45 L.
The test pesticides were as follows: A: 8000 IU/μL Bacillus thuringiensis suspension (produced by Qingdao Audis Biotechnology Co., Ltd. of Shandong), and B: compound I-72 (dissolved in acetone, 0.1% Tween 80 was added, and a 10% stock solution was prepared for use).
[formula] [formula] • in the formula, CK is the leaf rolling rate in the blank control plot after the pesticide application

The test system of test [2] is Nilaparvata lugens (Stal) nymphs. Kind of test: Joint toxicity of I-72 + buprofezin, Example 52, Table 52. Particulars: A = compound I-72, B = buprofezin, potted-seedling spraying, 72 hours, read-out: LC50. The protocol: Test target: Nilaparvata lugens (Stal) nymphs, a sensitive strain reared indoors.
(§1) Preparation of the pesticide solution: according to different test requirements, the test samples were accurately weighed respectively with an electronic analytical balance. The technical pesticides were dissolved in acetone, and then diluted with 0.1% Tween 80 water into a series of pesticide solutions with a certain concentration gradient according to the experimental design dosage.
Experimental method: the activity of the mixture against the Nilaparvata lugens (Stal) nymphs was determined by adopting the potted-seedling spraying method. First, rice seedlings were planted in culture pots. Uniform spraying was performed with the pesticide solution in the order from low dosage to high dosage according to the experimental design, with 2 mL for each seedling. Then, Nilaparvata lugens nymphs of uniform size were transferred onto the rice seedlings, with 3 replicates for each treatment. In addition, a blank control was set up.
The treated test materials were placed in an observation room, and the temperature, humidity and illumination of the observation room could be adjusted as needed. The number of dead and live insects was investigated 72 hours later. […] Then, the co-toxicity coefficient of each ratio was calculated using the Sun Y-P method to evaluate the mixing effect, as in Example 1.

Test [3] has as its system Lipaphis erysimi (Kaltenbach). Kind of test: Joint toxicity of I-72 + pyrethrin, Example 47, Table 47. Particulars: Lipaphis erysimi; A = compound I-72, B = pyrethrin; cabbage leaf spraying; 48 hours; read-out: LC50. The protocol: Test target: Lipaphis erysimi (Kaltenbach).
as §1
Experimental method: first, cabbage leaves with uniform and consistent Lipaphis erysimi (Kaltenbach) were selected, with about 30-40 insects on each leaf. Then, they were evenly sprayed with the pesticide solution in the order from low dosage to high dosage according to the experimental design, with 1.5 mL of the solution for each leaf and 3 replicates for each treatment. In addition, a blank control was set up.
(§2) The treated test materials were placed in an observation room, and the temperature, humidity and illumination of the observation room could be adjusted as needed. The number of dead and live insects was investigated 48 hours later. […] Then, the co-toxicity coefficient of each ratio was calculated using the Sun Y-P method to evaluate the mixing effect (the same as in Example 1).

Test [4] concerns Bemisia tabaci (Gennadius) nymphs. Kind of test: Joint toxicity of I-72 + spiromesifen, Example 27, Table 27. Particulars: Bemisia tabaci; A = compound I-72, B = spiromesifen; cotton leaf-disk spraying; 96 hours; read-out: LC50. The method, then:
Test target: Bemisia tabaci (Gennadius) nymphs, a sensitive strain reared indoors.
as §1
Experimental method: first, cotton leaves with neat and consistent Bemisia tabaci (Gennadius) nymphs were selected and made into leaf disks, with about 20 insects on each leaf disk. Then, they were evenly sprayed with the pesticide solution in the order from low dosage to high dosage according to the experimental design, with 1.5 mL for each leaf and 3 replicates for each treatment. In addition, a blank control was set up.
The treated test materials were placed in an observation room, and the temperature, humidity and illumination of the observation room could be adjusted as needed. The number of dead and live insects was investigated 96 hours later. […] Then, the co-toxicity coefficient of each ratio was calculated using the Sun Y-P method to evaluate the mixing effect (the same as in Example 1).

Test [5] deals with Myzus persicae (Sulzer) nymphs. In words: Joint toxicity of I-72 + fenvalerate, Example 46, Table 46. As to conditions: A = compound I-72, B = fenvalerate, cabbage leaf spraying, 48 hours, read-out: LC50. The method, then:
Test target: Myzus persicae (Sulzer) nymphs, a sensitive strain reared indoors.
as §1
Experimental method: first, cabbage leaves with uniform and consistent Myzus persicae (Sulzer) were selected, with about 30-40 insects on each leaf. Then, they were evenly sprayed with the pesticide solution in the order from low dosage to high dosage according to the experimental design, with 1.5 mL of the solution for each leaf and 3 replicates for each treatment. In addition, a blank control was set up.
as §2

The test system of test [6] is Thrips flavus Schrank nymphs. In words: Joint toxicity of I-72 + tolfenpyrad, Example 62, Table 62. Particulars: A = compound I72, B = tolfenpyrad, eggplant seedling spraying, 48 hours, read-out: LC50. The method, then:
Test target: Thrips flavus Schrank nymphs.
as §1
Experimental method: first, eggplant seedlings with Thrips flavus Schrank were selected, and the base number was counted. Then, uniform spraying was performed with the pesticide solution in the order from low to high doses according to the experimental design, with 2 mL for each seedling and 3 replicates for each treatment. In addition, a blank control was set up.
as §2

Test [7] has as its system adult Tetranychus urticae Koch. In words: Joint toxicity of I-72 + spirobudifen, Example 29, Table 29. Particulars: A = compound I-72, B printed spirotetramat (title: spirobudifen), potted-seedling spraying, 72 hours, read-out: LC50. The method, then: as §1
In addition, a blank control was set up.
The treated test materials were placed in an observation room, and the temperature, humidity and illumination of the observation room could be adjusted as needed.

Structures are written as SMILES.

`CN(C(=O)c1ccc2c(c1)OC(F)(F)O2)c1cccc(C(=O)Nc2c(Br)cc(C(F)(C(F)(F)F)C(F)(F)F)cc2OC(F)F)c1F` [Compound I-72]: the Control efficacy in test [1] (dose 9 ml per mu) came to 79.6%; in test [1] (dose 11.25 ml per mu), 85.0%; in test [1] (dose 13.5 ml per mu) it was 86.8%. Moreover, the results for the Leaf rolling rate in test [1] (dose 9 ml per mu), in test [1] (dose 11.25 ml per mu) and in test [1] (dose 13.5 ml per mu) were 8.6%, 6.3% and 5.6%, respectively. Besides, the LC50 in test [2] amounted to 253 µg/mL; in test [3], 10.4 µg/mL; in test [4], 11.9 µg/mL; in test [5], 8.2 µg/mL; in test [6], 2.02 µg/mL; in test [7], 41.6 µg/mL.
